Values after ≈ are worked out from the molar mass of the structure shown. Read-outs that look alike come from different tables or passages of the source. Bounds are passed on as bounds.

Experiment [1] deals with K. pneumoniae 225. The experiment can be described thus: MicroScan Walkaway microdilution susceptibility test. The experiment is classed as cell-based, Klebsiella pneumoniae. Conditions: for MicroScan susceptibility result: K. pneumoniae 225; for MIC: Klebsiella pneumoniae, 225, read-out: MicroScan MIC.
Experiment [2] concerns E. coli HB101 transformant (17 kb plasmid). Conditions: disk diffusion, Tr (17 kb) = transformant E. coli HB101.
For experiment [3], the system named is E. aerogenes. Kind of experiment: Disk diffusion susceptibility test. The experiment is classed as cell-based, Enterobacter aerogenes. Conditions: all the E. aerogenes strains. The procedure: Antibiotic susceptibilities were determined by standard disk-diffusion (NCCLS Standard M2-A6) and agar-dilution (NCCLS Standard M7-A4) procedures. Disks were obtained from Becton Dickinson Microbiology Systems (Cockeysville, Md.). Disk-diffusion susceptibilities to the following antibiotics were determined, ampicillin; amoxicillin clavulanic acid; aztreonam; cefazolin; cefoxitin; cefuroxime; cefotaxime; ceftriaxone; ceftazidime; cefepime; imipenem; gentamicin; trimethoprim/sulfamethoxazole and ciprofloxacin. […] The following quality control strains were run simultaneously with the test organisms Escherichia coli ATCC 25922, Pseudomonas aeruginosa ATCC 27853, and E. coli ATCC 35218. Throughout this study, results were interpreted using NCCLS criteria for disk diffusion (NCCLS M2-A6) and broth dilution (NCCLS M7-A4).

The test system of experiment [4] is K. pneumoniae 225. The experiment can be described thus: NCCLS microdilution susceptibility test. Type of experiment: cell-based, Klebsiella pneumoniae.
The subject of the next experiment is K. pneumoniae. Kind of experiment: Agar dilution MIC, South African isolates. To be noted: tzp with tazobactam 4 μg/ml. Type of experiment: cell-based, Klebsiella pneumoniae. The text has this:
(§1) The strains were provided in response to a request for all strains of Enterobacteriaceae, lacking inducible beta-lactamases, that were intermediate or resistant to cefotaxime or ceftazidime. […]

The subject of the next experiment is E. coli. The experiment can be described thus: Agar dilution MIC, South African isolates. Conditions: tzp with tazobactam 4 μg/ml. The experiment is classed as cell-based, Escherichia coli.
Source text: as §1

The next experiment deals with P. mirabilis. The experiment can be described thus: Agar dilution MIC, South African isolates. Type of experiment: cell-based, Proteus mirabilis. Conditions: 4 strains, tzp with tazobactam 4 μg/ml. The text has this: During a period of three months in 1993, […] strains of Klebsiella pneumoniae (13 blood, 5 burn, 7 wound, 11 tracheal isolates), 4 strains of Proteus mirabilis (all wound isolates) and 4 strains of Escherichia coli (1 blood, 1 burn, 2 wound isolates) were collected from patients at the following medical centers in South Africa: Tygerberg Hospital near Cape Town, King Edward VIII Hospital in Durban, Chris Hani Baragwanath Hospital in Soweto and Pretoria Academic Hospital in Pretoria. The strains were provided in response to a request for all strains of Enterobacteriaceae, lacking inducible beta-lactamases, that were intermediate or resistant to cefotaxime or ceftazidime. […] Therefore accurate prevalence data were not obtained.
Antibiotic susceptibility was determined by standard disk diffusion (NCCLS Standard M2-T4, 1994) and agar dilution (NCCLS Standard M7-T2, 1994) procedures. Standard powders of antimicrobial agents were kindly provided by the following companies: piperacillin and tazobactam (Lederle Laboratories, Wayne, N.J.); cefoxitin and imipenem, (Merck, Rathway, N.J.); cefotaxime, (Hoechst-Roussel Pharmaceuticals Inc., Somerville, N.J.); ceftazidime, (Glaxo Group Research Ltd., Greenford, England); aztreonam and cefepime, (Bristol-Myers Squibb, Princeton, N.J.). Disks for agar diffusion were obtained from Becton Dickinson Microbiology Systems (Cockeysville, Md.). For quality control purposes, the following quality control strains were run simultaneously with the test organisms E. coli ATCC 25922, Pseudomonas aeruginosa ATCC 27853, E. coli ATCC 35218, and Staphylococcus aureus ATCC 29213. Throughout this study, results were interpreted using NCCLS criteria for disk diffusion (NCCLS Standard M2-T4, 1994) and broth dilution (NCCLS Standard M7-T2, 1994).

The test system of experiment [5] is K. pneumoniae 225. The experiment can be described thus: NCCLS disk diffusion assay. Conditions: Kleb 225; for Zone Size: disk diffusion. Type of experiment: cell-based, Klebsiella pneumoniae.
The test system of experiment [6] is E. coli C600 transconjugant. To be noted: disk diffusion, Tc = transconjugate E. coli C600.
The subject of experiment [7] is E. aerogenes. The experiment is classed as cell-based, Enterobacter aerogenes. The procedure: Antibiotic susceptibilities were determined by standard disk-diffusion (NCCLS Standard M2-A6) and agar-dilution (NCCLS Standard M7-A4) procedures. Disks were obtained from Becton Dickinson Microbiology Systems (Cockeysville, Md.). […] Throughout this study, results were interpreted using NCCLS criteria for disk diffusion (NCCLS M2-A6) and broth dilution (NCCLS M7-A4).

[8] abbreviates: resistance phenotype Kpn2, 28 strains.
[9] abbreviates: resistance phenotype Ec2, 1 strain.
Setting [10] is: resistance phenotype Kpn1, 8 strains.
The mark [11] stands for this setting: resistance phenotype Kpn3 (K. pneumoniae Pit 68), 1 strain.
Where [12] appears, read: resistance phenotype Ec1, 3 strains.

Regarding `NCC[C@H](O)C(=O)N[C@@H]1C[C@H](N)[C@@H](O[C@H]2O[C@H](CN)[C@@H](O)[C@H](O)[C@H]2O)[C@H](O)[C@H]1O[C@H]1O[C@H](CO)[C@@H](O)[C@H](N)[C@H]1O` [amikacin], in the experiment on K. pneumoniae 225 [1], the MicroScan susceptibility result is listed as “Resistant” and the MIC was more than 32 µg/mL. Besides, in experiment [2], the “Zone Size” value turned out to be 12 mm.

For the compound `CC1(C)S[C@@H]2[C@H](NC(=O)[C@H](N)c3ccccc3)C(=O)N2[C@H]1C(=O)O` [ampicillin], the Disk diffusion susceptibility result in the experiment with E. aerogenes [3] is listed as “resistant”. Also, the “Zone Size” value in [2] is reported as 7 mm.

In the experiment on K. pneumoniae 225 [4] (Klebsiella pneumoniae, 225), `Cc1nnc(SCC2=C(C(=O)O)N3C(=O)[C@@H](NC(=O)Cn4cnnn4)[C@H]3SC2)s1` [cefazolin] came in with an MIC of more than 64 µg/mL. Moreover, the Disk diffusion susceptibility entry in the experiment on E. aerogenes [3] was “resistant”.

Turning to `CO/N=C(\C(=O)N[C@@H]1C(=O)N2C(C(=O)[O-])=C(C[N+]3(C)CCCC3)CS[C@H]12)c1csc(N)n1` [cefepime], in the experiment on K. pneumoniae 225 [4] (Klebsiella pneumoniae, 225), the minimal inhibitory concentration (MIC) was 1 µg/mL (≈ 2.08 µM). Moreover, the MIC range with K. pneumoniae (setting [8]) is 0.5 to 4 µg/mL; with E. coli (setting [9]), 2 µg/mL; in the experiment with P. mirabilis, 2 µg/mL.

For the compound `C=CC1=C(C(=O)O)N2C(=O)[C@@H](NC(=O)/C(=N\OCC(=O)O)c3csc(N)n3)[C@H]2SC1` [cefixime], the MIC with K. pneumoniae 225 [4] (Klebsiella pneumoniae, 225) was more than 64 µg/mL.

For the compound `CO[C@@]1(NC(=O)C2SC(=C(C(N)=O)C(=O)O)S2)C(=O)N2C(C(=O)O)=C(CSc3nnnn3C)CS[C@@H]21` (some centres unmarked) [cefotetan], the MIC in the experiment on K. pneumoniae 225 [1] turned out to be 16 µg/mL (≈ 27.8 µM). For the same compound, the “Zone Size” value is listed as 12 mm in the experiment with K. pneumoniae 225 [5], 30 mm in [2] and 11 mm in experiment [6].

Regarding `COCC1=C(C(=O)O)N2C(=O)[C@@H](NC(=O)/C(=N\OC)c3csc(N)n3)[C@H]2SC1` [cefpodoxime], the lowest concentration to inhibit growth in the experiment with K. pneumoniae 225 [4] (Klebsiella pneumoniae, 225) (MIC) was 64 µg/mL (≈ 150 µM).

Take `CO/N=C(\C(=O)N[C@@H]1C(=O)N2C(C(=O)O)=C(COC(N)=O)CS[C@H]12)c1ccco1` [cefuroxime]: in the experiment with K. pneumoniae 225 [1], the MicroScan susceptibility result was “Resistant” and the MIC was more than 16 µg/mL. For the same compound, in the experiment on E. aerogenes [3], the Disk diffusion susceptibility entry is recorded as “resistant”.

For `CC(=O)OCC1=C(C(=O)O)N2C(=O)[C@@H](NC(=O)Cc3cccs3)[C@H]2SC1` [cephalothin], the MIC against K. pneumoniae 225 [4] (Klebsiella pneumoniae, 225) is more than 64 µg/mL.

`O=C(N[C@H](CO)[C@H](O)c1ccc([N+](=O)[O-])cc1)C(Cl)Cl` [chloramphenicol]: the MicroScan susceptibility result in the experiment with K. pneumoniae 225 [1] is recorded as “Resistant”. The minimum inhibitory concentration (MIC) with K. pneumoniae 225 [1] was more than 16 µg/mL. The “Zone Size” value worked out at 8 mm in the experiment with K. pneumoniae 225 [5], 22 mm in experiment [2] and 12 mm in experiment [6].

On to `O=C(O)c1cn(C2CC2)c2cc(N3CCNCC3)c(F)cc2c1=O` [ciprofloxacin], for which the MIC in the experiment on K. pneumoniae 225 [4] (Klebsiella pneumoniae, 225) amounted to 0.5 µg/mL (≈ 1.51 µM); in the experiment on K. pneumoniae 225 [1], 2 µg/mL (≈ 6.04 µM). The Disk diffusion interpretation entry in the experiment on K. pneumoniae 225 [5] is reported as “susceptible”. Moreover, the “Zone Size” value is reported as 22 mm in the experiment with K. pneumoniae 225 [5], 31 mm in [2] and 31 mm in experiment [6]. Also, in the experiment with E. aerogenes [3], the Disk diffusion susceptibility result is listed as “susceptible”.

With `C[C@@H](O)[C@H]1C(=O)N2C(C(=O)O)=C(SCCN=CN)C[C@H]12` [imipenem], the MIC in the experiment on K. pneumoniae 225 [4] (Klebsiella pneumoniae, 225) worked out at 1 µg/mL (≈ 3.34 µM). The “Zone Size” value with K. pneumoniae 225 [5] is on record as 22 mm; in experiment [2], 33 mm; in experiment [6], 23 mm. The MIC range in the experiment on K. pneumoniae (setting [10]) is 0.12 µg/mL; in the experiment with K. pneumoniae (setting [8]) it was 0.12 to 1 µg/mL; with K. pneumoniae (setting [11]) it was 0.12 µg/mL; in the experiment with E. coli (setting [12]), 0.12 µg/mL; in the experiment on E. coli (setting [9]), 0.12 µg/mL; with P. mirabilis, 0.5 to 1 µg/mL. The MIC range in the experiment on E. aerogenes [7] (1 E. aerogenes strain with Bush group 1 and group 2be (SHV-3) enzymes) amounted to 0.5 µg/mL (≈ 1.67 µM); against E. aerogenes [7] (1 E. aerogenes strain with Bush group 1 and group 2be (SHV-5) enzymes) it was 1 µg/mL (≈ 3.34 µM); in the experiment on E. aerogenes [7] (29 E. aerogenes strains with Bush group 1 and group 2be (SHV-4) enzymes), 0.5 µg/mL (≈ 1.67 µM).

`C[C@H]1COc2c(N3CCN(C)CC3)c(F)cc3c(=O)c(C(=O)O)cn1c23` [levofloxacin]: the MIC in the experiment with K. pneumoniae 225 [1] came out at 2 µg/mL (≈ 5.53 µM).

`C[C@@H](O)[C@H]1C(=O)N2C(C(=O)O)=C(S[C@@H]3CN[C@H](C(=O)N(C)C)C3)[C@H](C)[C@H]12` [meropenem] gave an MIC in the experiment with K. pneumoniae 225 [4] (Klebsiella pneumoniae, 225) of 0.06 µg/mL (≈ 0.156 µM).

In the case of `O=C1CN(/N=C/c2ccc([N+](=O)[O-])o2)C(=O)N1` [nitrofurantoin], in the experiment with K. pneumoniae 225 [1], the minimum inhibitory concentration (MIC) was more than 64 µg/mL.

As for `CC1COc2c(N3CCN(C)CC3)c(F)cc3c(=O)c(C(=O)O)cn1c23` (centres unmarked) [ofloxacin], in the experiment on K. pneumoniae 225 [1], the MIC turned out to be 2 µg/mL (≈ 5.53 µM).

Turning to `CCN1CCN(C(=O)N[C@@H](C(=O)N[C@@H]2C(=O)N3[C@@H]2SC(C)(C)[C@@H]3C(=O)O)c2ccccc2)C(=O)C1=O` [piperacillin], the MIC in the experiment with K. pneumoniae 225 [4] (Klebsiella pneumoniae, 225) was more than 64 µg/mL. The MIC range was 64 µg/mL in the experiment on K. pneumoniae (setting [11]), more than 128 µg/mL with E. coli (setting [12]), more than 128 µg/mL with E. coli (setting [9]) and 128 µg/mL in the experiment with P. mirabilis.

`CC1(C)S[C@@H]2[C@H](NC(=O)[C@H](C(=O)O)c3ccsc3)C(=O)N2[C@H]1C(=O)O` [ticarcillin] displayed an MIC in the experiment on K. pneumoniae 225 [4] (Klebsiella pneumoniae, 225) of more than 64 µg/mL.

As for `NC[C@H]1O[C@H](O[C@H]2[C@H](O)[C@@H](O[C@H]3O[C@H](CO)[C@@H](O)[C@H](N)[C@H]3O)[C@H](N)C[C@@H]2N)[C@H](N)C[C@@H]1O` [tobramycin], in the experiment on K. pneumoniae 225 [1], the MicroScan susceptibility result was “Resistant” and the MIC is more than 8 µg/mL.

With amoxicillin/clavulanate, in the experiment on K. pneumoniae 225 [4] (NCCLS microdilution, Mueller-Hinton broth, K. pneumoniae 225), the MIC worked out at 64 µg/mL. Moreover, the Disk diffusion susceptibility entry in the experiment with E. aerogenes [3] is listed as “resistant”.

Take piperacillin/tazobactam: the “Zone Size” value with K. pneumoniae 225 [5] worked out at 15 mm; in [2], 30 mm; in experiment [6], 14 mm. Besides, the MIC range was 2 to 4 µg/mL with K. pneumoniae (setting [10]); 16 µg/mL in the experiment on K. pneumoniae (setting [11]); 1 µg/mL with E. coli (setting [12]); 32 µg/mL in the experiment on E. coli (setting [9]); 0.25 to 0.5 µg/mL with P. mirabilis.

For the origin of these results see US6893846B2, “Primers for use in detecting beta-lactamases” (priority 1998, dated 2005).
